≈ marks a conversion by molar mass, not a printed value. *1 amine or outer side, *2 acyl side, *3 side chain or, on linkers, in order; H or OH if unused. Where a SMILES comes first, the peptide text is derived from it. Side-chain parts run from the residue outwards. [ ]: non-standard residue; d: D form. The star is where a group is joined. DAMPA = CN(Cc1cnc2nc(N)nc(N)c2n1)c1ccc(C(=O)*)cc1; Orn(N5-OH,N5-Ac) = CC(=O)N(O)CCC[C@H](N)C(=O)O; γGlu = O=C(O)[C@H](CCC(=O)[*:2])N[*:1]; Ethylenediamine = C(CN[*:2])N[*:1]

The nature of data set [1]: Cytotoxicity against human L02 assessed as lethal dose. Type of data set: toxicity, cell-based. As to conditions: L02 cells, read-out: LD50 (the source's name).
Data set [2] in a line: Potency index, ratio of test compound LD50 to methotrexate LD50 for cytotoxicity against human L02 cells. Type of data set: toxicity, cell-based.
The test system of another data set is Streptococcus pneumoniae. Kind of data set: Antimicrobial activity against Streptococcus pneumoniae assessed as microbial growth inhibition. Type of data set: functional.
The test system of another data set is Yersinia enterocolitica. Kind of data set: Antimicrobial activity against Yersinia enterocolitica assessed as microbial growth inhibition. It counts as functional.

Usually MIC stands for the lowest concentration that inhibits growth of the organism. For the molecule `CC(=O)N(O)CCC[C@H](NC(=O)[C@H](CCCN(O)C(C)=O)NC(=O)[C@@H](N)CCCN(O)C(C)=O)C(=O)N[C@@H](CCC(=O)NCCNC(=O)CC[C@H](NC(=O)c1ccc(N(C)Cc2cnc3nc(N)nc(N)c3n2)cc1)C(=O)O)C(=O)O` (H-[Orn(N5-OH,N5-Ac)][Orn(N5-OH,N5-Ac)][Orn(N5-OH,N5-Ac)]E([Ethylenediamine-γGlu-DAMPA])-OH), the CC50 in data set [1] stood at 18.5 µM. For the same molecule, the selectivity ratio in data set [2] was 2310. Further, the results for the MIC in the data set with Streptococcus pneumoniae and in the data set with Yersinia enterocolitica were 1.72 nM (≈ 1.96 ng/mL) and 6.84 nM (≈ 7.81 ng/mL), respectively.
